According to US20030009213A1, “Stent having cover with drug delivery capability” (priority 2000, published 2003):

Experiment: Release of Taxol from a coated ePTFE stent cover after implantation
Type: in vivo
Details: first week after implantation; ePTFE stent cover with outer layer of Taxol, gelatin and poly(e-caprolactone) mixture (20:20:60)
Description: A polymeric stent cover, made of ePTFE, is provided with another layer of Taxol, gelatin, and poly(e-caprolactone) mixture (20:20:60) on the outside. 20% of the Taxol is released to the artery wall during the first week after implantation.

- Taxol released to the artery wall: 20%
Structure (SMILES): CC(=O)O[C@H]1C(=O)[C@@]2(C)[C@H]([C@H](OC(=O)c3ccccc3)[C@]3(O)C[C@H](OC(=O)[C@H](O)[C@@H](NC(=O)c4ccccc4)c4ccccc4)C(C)=C1C3(C)C)[C@]1(OC(C)=O)CO[C@@H]1C[C@@H]2O [Taxol]
